Structures can show the parent of a compound that is named as a salt.
Tests used:
EP1 receptors [1] = molecular target: T1, EP1 receptors (Homo sapiens, UniProt P34995); assay: Binding assay for the human prostanoid EP1 receptor (competition with [3H]-PGE2); design: expressed in transfected cells; host or cells: CHO-K1 cells, membrane fraction; settings: [3H]-PGE2 competition; averages of a number of experiments; read-out: pIC50 value, binding assay for the human prostanoid EP1 receptor (converted)
T1 sequence (P34995 1-402): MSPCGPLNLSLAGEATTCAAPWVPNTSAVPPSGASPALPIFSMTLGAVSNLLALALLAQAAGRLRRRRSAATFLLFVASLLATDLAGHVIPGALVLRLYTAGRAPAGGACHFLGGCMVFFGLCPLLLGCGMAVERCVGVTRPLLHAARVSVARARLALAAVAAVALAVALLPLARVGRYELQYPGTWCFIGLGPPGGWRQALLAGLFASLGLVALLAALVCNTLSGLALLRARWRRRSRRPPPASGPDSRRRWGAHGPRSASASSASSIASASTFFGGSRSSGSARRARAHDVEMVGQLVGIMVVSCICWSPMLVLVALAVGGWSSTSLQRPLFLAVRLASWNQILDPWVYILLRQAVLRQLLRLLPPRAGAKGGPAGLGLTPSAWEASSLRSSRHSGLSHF
Procedure, shortened: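 Competition against 3 nM (final) tritiated PGE2 at 30° C for 30 min, pH 6 MES assay buffer, using membranes of stably transfected CHO-K1 cells. Filter-retained counts by scintillation; nonlinear curve fitting gives concentration inhibiting 50% of specific binding.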

EP1 receptors [2] = molecular target: T1, EP1 receptors; assay: human EP1 calcium mobilisation assay (CHO-K1 cells, FLIPR, PGE2); format: cell-based; design: expressed in transfected cells; host or cells: CHO-K1 cells, pCIN vector; settings: free bases or sodium salts; averages of a number of experiments; read-out: functional pKi value, human EP1 calcium mobilisation assay (converted)
Experimental: Briefly, the antagonist properties of compounds are assessed by their ability to inhibit the mobilisation of intracellular calcium ([Ca^2+]i) in response to activation of EP1 or EP3 receptors by the natural agonist hormone prostaglandin E2 (PGE2). Increasing concentrations of antagonist reduce the amount of calcium that a given concentration of PGE2 can mobilise. The net effect is to displace the PGE2 concentration-effect curve to higher concentrations of PGE2. The amount of calcium produced is assessed using a calcium-sensitive fluorescent dye such as Fluo-4, AM and a suitable instrument such as a Fluorimetric Imaging Plate Reader (FLIPR). Increasing amounts of [Ca^2+]i produced by receptor activation increase the amount of fluorescence produced by the dye and give rise to an increasing signal. The signal may be detected using the FLIPR instrument and the data generated may be analysed with suitable curve-fitting software.
The human EP1 or EP3 calcium mobilisation assay (hereafter referred to as ‘the calcium assay’) utilises Chinese hamster ovary-K1 (CHO-K1) cells into which a stable (pCIN; BioTechniques 20 (1996): 102-110) vector containing either EP1 or EP3 cDNA has previously been transfected. Cells are cultured in suitable flasks containing culture medium such as DMEM:F-12 supplemented with 10% v/v foetal calf serum, 2 mM L-glutamine, 0.25 mg/ml geneticin, 100 μM flurbiprofen and 10 µg/ml puromycin. For assay, cells are harvested using a proprietary reagent that dislodges cells such as Versene. Cells are re-suspended in a suitable quantity of fresh culture media for introduction into a 384-well plate. Following incubation for 24 hours at 37° C. the culture media is replaced with a medium containing Fluo-4 and the detergent pluronic acid, and a further incubation takes place. Concentrations of compounds are then added to the plate in order to construct concentration-effect curves. This may be performed on the FLIPR in order to assess the agonist properties of the compounds. Concentrations of PGE2 are then added to the plate in order to assess the antagonist properties of the compounds. The data so generated may be analysed by means of a computerised curve-fitting routine. The concentration of compound that elicits a half-maximal inhibition of the calcium mobilisation induced by PGE2 (pIC50) may then be estimated.

IC50 (EP1 receptors [1])	Ki (EP1 receptors [2])	Compound
≤ 1000 nM	> 1000 nM	O=C(NCc1ccccc1)c1csc(Cc2cc(Cl)ccc2OCc2ccccc2)n1 [Example 92, 2-({5-Chloro-2-[(phenylmethyl)oxy]phenyl}methyl)-N-(phenylmethyl)-1,3-thiazole-4-carboxamide]
≤ 1000 nM	< 1000 nM	CC(C(=O)O)c1csc(-c2cc(Cl)ccc2OCc2ccccc2)n1 (centres unmarked) [Example 46, Sodium 2-(2-{5-chloro-2-[(phenylmethyl)oxy]phenyl}-1,3-thiazol-4-yl)propanoate]
≤ 1000 nM	> 1000 nM	OCc1cccc2nc(-c3csc(Cc4cc(Cl)ccc4OCc4ccccc4)n3)[nH]c12 [Example 143, {2-[2-({5-Chloro-2-[(phenylmethyl)oxy]phenyl}methyl)-1,3-thiazol-4-yl]-1H-benzimidazol-4-yl}methanol hydrochloride]
≤ 1000 nM	< 1000 nM	CC(C)COc1ccc(Cl)cc1Cc1nc(-c2nc3ccc(N4CCCCC4)nc3[nH]2)cs1 [Example 147]
≤ 1000 nM	< 1000 nM	O=C(NCc1cccnc1)c1csc(Cc2cc(Cl)ccc2OCc2ccccc2)n1 [Example 95, 2-({5-Chloro-2-[(phenylmethyl)oxy]phenyl}methyl)-N-(3-pyridinylmethyl)-1,3-thiazole-4-carboxamide]
≤ 1000 nM	< 1000 nM	Clc1ccc(OCc2ccccc2)c(Cc2nc(-c3nc4ncc(Br)cc4[nH]3)cs2)c1 [Example 134, 6-Bromo-2-[2-({5-chloro-2-[(phenylmethyl)oxy]phenyl}methyl)-1,3-thiazol-4-yl]-1H-imidazo[4,5-b]pyridine]
≤ 1000 nM	> 1000 nM	CCC(=O)Nc1csc(Cc2cc(Cl)ccc2OCc2ccccc2)n1 [Example 128]
≤ 1000 nM	< 1000 nM	Clc1ccc(OCc2ccccc2)c(Cc2nc(-c3nc4ccccc4[nH]3)cs2)c1 [Example 131, 2-[2-({5-Chloro-2-[(phenylmethyl)oxy]phenyl}methyl)-1,3-thiazol-4-yl]-1H-benzimidazole]
≤ 31.6 nM	< 1000 nM	CNCc1ccc2nc(-c3csc(Cc4cc(Cl)ccc4OCC(C)C)n3)[nH]c2c1 [Example 126, ({2-[2-({5-Chloro-2-[(2-methylpropyl)oxy]phenyl}-methyl)-1,3-thiazol-4-yl]-1H-benzimidazol-5-yl}methyl)methylaminehydrochloride]
≤ 1000 nM	< 1000 nM	CN(C)Cc1ccc2nc(-c3coc(Cc4cc(Cl)ccc4OCc4ccccc4)n3)[nH]c2c1 [Example 170, ({2-[2-({5-chloro-2-[(phenylmethyl)oxy]phenyl}-methyl)-1,3-oxazol-4-yl]-1H-benzimidazol-5-yl}methyl)dimethylaminehydrochloride]
≤ 1000 nM	> 1000 nM	CC(C)COc1ccc(Cl)cc1Nc1nc(-c2nc3ccc(CN4CCCC4)cc3[nH]2)cs1 [Example 181, N-{5-Chloro-2-[(2-methylpropyl)oxy]phenyl)-4-[5-(1-pyrrolidinylmethyl)-1H-benzimidazol-2-yl]-1,3-thiazol-2-amine]
≤ 1000 nM	> 1000 nM	O=C(O)Cc1coc(-c2cc(Cl)ccc2OCc2ccc(F)cc2Cl)n1 [Example 81, [2-(5-chloro-2-{[(2-chloro-4-fluorophenyl)methyl]oxy}phenyl)-1,3-oxazol-4-yl]acetic acid]
≤ 31.6 nM	< 1000 nM	CN(C)c1ccc2nc(-c3csc(Cc4cc(Cl)ccc4OCc4ccccc4)n3)[nH]c2n1 [Example 152, 2-[2-({-5-Chloro-2-[(phenylmethyl)oxy]phenyl}methyl)-1,3-thiazol-4-yl]-N,N-dimethyl-1H-imidazo[4,5-b]pyridin-5-amine hydrochloride]

Further lines, the molecule ahead of its results:

Compound	IC50 (EP1 receptors [1])	Ki (EP1 receptors [2])
O=C(NS(=O)(=O)c1ccccc1)c1csc(Cc2cc(Cl)ccc2OCc2ccccc2Cl)n1 [Example 104, 2-[(5-Chloro-2-{[(2-chlorophenyl)methyl]-oxy}phenyl)methyl]-N-(phenylsulfonyl)-1,3-thiazole-4-carboxamide]	≤ 31.6 nM	< 1000 nM
CS(=O)(=O)NC(=O)c1csc(Cc2cc(Cl)ccc2OCc2ccc(F)cc2)n1 [Example 107, 2-[(5-Chloro-2-{[(4-fluorophenyl)methyl]-oxy)phenyl)methyl]-N-(methylsulfonyl)-1,3-thiazole-4-carboxamide]	≤ 31.6 nM	< 1000 nM
CC(C)COc1ccc(Cl)cc1Nc1nc(-c2nc3ccccc3[nH]2)cs1 [Example 164, 4-(1H-Benzimidazol-2-yl)-N-{5-chloro-2-[(2-methylpropyl)oxy]phenyl}-1,3-thiazol-2-aminehydrochloride]	≤ 31.6 nM	< 1000 nM
O=C(O)Cc1coc(-c2cc(Cl)ccc2OCc2ccc(F)cc2F)n1 [Example 79, [2-(5-chloro-2-{[(2,4-difluorophenyl)-methyl]oxy}phenyl)-1,3-oxazol-4-yl]acetic acid]	≤ 1000 nM	> 1000 nM
CNCc1ccc2nc(-c3coc(Cc4cc(Cl)ccc4OCC(C)C)n3)[nH]c2c1 [Example 174, ({2-[2-({5-Chloro-2-[(2-methylpropyl)oxy]phenyl}methyl)-1,3-oxazol-4-yl]-1H-benzimidazol-5-yl}methyl)methylaminedihydrochloride]	≤ 31.6 nM	< 1000 nM
CC(C)COc1ccc(Cl)cc1Cc1nc(-c2nc3ccc(N4CCN(C)CC4)cc3[nH]2)cs1 [Example 142, 2-[2-({5-Chloro-2-[(2-methylpropyl)oxy]phenyl}methyl)-1,3-thiazol-4-yl]-5-(4-methyl-1-piperazinyl)-1H-benzimidazole hydrochloride]	≤ 31.6 nM	< 1000 nM
CC(C)(C)OC(=O)Nc1csc(Cc2cc(Cl)ccc2OCc2ccccc2)n1 [Example 110, 1,1-Dimethylethyl [2-({5-chloro-2-[(phenylmethyl)oxy]phenyl}methyl)-1,3-thiazol-4-yl]carbamate]	≤ 1000 nM	> 1000 nM
CC(C)COc1ccc(Cl)cc1Cc1nc(-c2nc3nccnc3[nH]2)cs1 [Example 136, 2-[2-({5-Chloro-2-[(2-methyl-propyl)oxy]-phenyl}methyl)-1,3-thiazol-4-yl]-1H-imidazo[4,5-b]pyrazinehydrochloride]	≤ 31.6 nM	≤ 31.6 nM
O=C(NS(=O)(=O)c1ccccc1)c1csc(Cc2cc(Cl)ccc2OCc2ccccc2F)n1 [Example 103, 2-[(5-Chloro-2-{[(2-fluorophenyl)methyl]-oxy}phenyl)methyl]-N-(phenylsulfonyl)-1,3-thiazole-4-carboxamide]	≤ 31.6 nM	< 1000 nM
O=C(NS(=O)(=O)c1ccccc1)c1csc(Cc2cc(Cl)ccc2OCc2ccc(Cl)cc2F)n1 [Example 105, 2-[(5-Chloro-2-{[(4-chloro-2-fluorophenyl)methyl]-oxy}phenyl)methyl]-N-(phenylsulfonyl)-1,3-thiazole-4-carboxamide]	≤ 31.6 nM	< 1000 nM
CC(C)COc1ccc(Cl)cc1Nc1nc(-c2nc3ccc(N4CCN(C)CC4)cc3[nH]2)cs1 [Example 165, N-{5-Chloro-2-[(2-methylpropyl)oxy]phenyl}-4-[5-(4-methyl-1-piperazinyl)-1H-benzimidazol-2-yl]-1,3-thiazol-2-aminetrihydrochloride]	≤ 31.6 nM	> 1000 nM
CC(C)COc1ccc(Cl)cc1Cc1nc(-c2nc3ccc(CCO)cc3[nH]2)cs1 [Example 154, 2-{2-[2-({5-Chloro-2-[(2-methylpropyl)oxy]phenyl}methyl)-1,3-thiazol-4-yl]-1H-benzimidazol-5-yl}ethanol]	≤ 31.6 nM	≤ 31.6 nM
